Experimental data published in patent publication US9468687B2, “Immuno gene therapy for treatment of cancer and hyperproliferative diseases” (priority 2004, dated 2016).

Tests used:
[1] = tested on: SCCVII squamous cell carcinoma; experiment: Subcutaneous squamous cell carcinoma (SCCVII) tumor growth; type: in vivo, mouse; conditions: pmIL-12/PPC 25 μg intratumoral weekly x4, two injections
Method: The effect of local administration of pIL-12/PPC complexes on the growth of subcutaneously implanted squamous cell (SCCVII) carcinoma was examined. 4×10^5 squamous carcinoma cells in 100 μl were implanted sc on the right flank of female Female CH3 mice (6-9 weeks, 17-22 grams) The mIL-12 plasmid was complexed with PPC at a 11:1 N:P ratio and administered locally into the tumors at a DNA dose of 25 μg in an injection volume of 50 μl once every week for four weeks starting ˜11 days after tumor implantation. Treatment groups of 12 mice were used and tumor growth was monitored twice per week using caliper measurement.
For combination therapy both gene therapy and chemotherapy treatment were given as described above. Treatment groups of 12 mice were used and tumor growth was monitored twice per week using caliper measurement.

[2] = tested on: ID8 peritoneal disseminated ovarian tumors; experiment: pIL-12/PPC plus paclitaxel in peritoneal disseminated ovarian tumors; type: in vivo, mouse
Method: Intraperitoneal IL-12 gene therapy was combined with paclitaxel chemotherapy to enhance the therapeutic response to disseminated ovarian tumors in mice. The mice were injected intraperitoneally with 5×10^6 ID8 cells in a volume of 500 μl. The treatments were started when tumor burden (mouse weight) reached approximately 20 grams (˜21 days after injection of cells). The mice were injected intraperitoneally with 25 μg of pmIL-12 complexed with PPC at a 11:1 N:P ratio in a volume of 500 μl. The gene treatment was repeated after 7 days constituting a total of two injections (Day 1, 8) per the study. Paclitaxel (Taxol®) was administered only once (Day 0) by intravenous injection at a dose of 8 mg/kg dose in an injection volume of 250 μL. For combination therapy, both gene therapy and chemotherapy treatments were given as described above. Animals were periodically weighed to assess the effect of gene treatment on tumor burden. […] The inhibition of tumor burden by pmIL-12/PPC complexes was slightly higher than that of paclitaxel.

CT26 tumors = conditions: cited from earlier work
Renca tumors = conditions: cited from earlier work

For `O=P1(N(CCCl)CCCl)NCCCO1` (stereo not drawn) [cyclophosphamide], the “tumor growth in combination study” value ([1]; cyclophosphamide 200 mg/kg iv) was “only a partial inhibition of tumor growth” and the “animals that completely rejected the tumor (complete rejection rate)” value ([1]; cyclophosphamide iv) was 10%.
For `CC(=O)O[C@H]1C(=O)[C@@]2(C)[C@H]([C@H](OC(=O)c3ccccc3)[C@]3(O)C[C@H](OC(=O)[C@H](O)[C@@H](NC(=O)c4ccccc4)c4ccccc4)C(C)=C1C3(C)C)[C@]1(OC(C)=O)CO[C@@H]1C[C@@H]2O` [paclitaxel], the peritoneal tumor burden ([2]; pmIL-12 25 μg ip day 1, 8, paclitaxel 8 mg/kg iv day 0) was “tumor reduction” and the survival ([2]; pmIL-12/PPC ip, paclitaxel 8 mg/kg iv) was “improved survival”.
In the case of IFN-α, the rejection rate (CT26 tumors) is given as 0% and the tumor rejection (Renca tumors) is given as 25%.
